What all share (format): cell-based
In series [1] the test system is human iPS cell-derived fetal epicardium. Kind of series: Transcriptome analysis for gene signature of cell quiescence by RNA sequencing. The settings on record: compared to human iPS cell-derived fetal epicardium and adult epicardium. As for the experimental part: (§1) In the siRNA transfection assay, the human iPS cell-derived fetal epicardium was seeded at a density of 0.8×10^6 cells per 10 cm dish, and transfection was carried out using RNAiMax (Invitrogen). Twenty-four hours after the transfection, the culture medium was replaced with a fresh medium. A small interfering RNA (siRNA) (sense strand: CAAGGAGUCAGACAUUUUAtt (SEQ ID NO: 1), an anti-sense strand: UAAAAUGUCUGACUCCUUGtt (SEQ ID NO: 2)) targeting CDKN1A, and a negative control siRNA No.1 (4390843) derived from Ambion Silencer Select, were used in accordance with the manufacturer's instructions.
The data obtained by RNA sequencing were normalized using NOISeq. The data of the adult epicardium are published for the analysis, under the GSE accession number: GSE8484085. The primary data of the RNA sequencing were processed using RStudio, for mapping and gene expression analysis. The gene expression data for searching, loading and pre-processing were processed using the Bioconductor package, NOISeq, for performing the data analysis and the differential expression analysis of the RNA sequencing data. Heatmaps for clustering differentially expressed genes (DEG) were generated, using R script.
In addition, the transcriptome analysis for detecting the gene signature of cell quiescence was carried out by RNA sequencing (FIG. 6). […]

Series [2] has the same test system. The series can be described thus: Cell proliferation curve assay. The settings on record: cell proliferation curves for 7 days after siRNA transfection; vs negative control siRNA. As for the experimental part: as §1
The cell proliferation was evaluated by the time-course curve of the proliferation of the cells on a six-well plate. The cells were seeded at a density of 4 ×10^4 cells per well, and the total number of cells was counted using trypan blue for 8 days at intervals of 24 hours. The cell proliferation curves were generated by plotting the number of cells against time. After seeding, the cells were fixed with 4% paraformaldehyde (PFA), and stained with crystal violet on the days the cells were counted. The values were represented as the cell proliferation rate of the cells proliferated in the presence of 10% FBS. “0%” refers to the number of cells on day 0. […]

Another series concerns human epicardial cells. Kind of series: Colony formation assay. Conditions: colony formation for 14 days after siRNA transfection; vs negative control siRNA. As for the experimental part:
as §1
[…] Thereafter, the colony was fixed with 4% PFA, stained with crystal violet, and counted by Image-J.
The colony formation assay was carried out in the same manner, in order to measure the viability of the human epicardial cells.

The subject of series [3] is human iPS cell-derived fetal epicardium. The series can be described thus: Wound-healing assay. Conditions: from 20 hours to 24 hours after scratching; vs negative control siRNA. As for the experimental part: as §1
The cells were seeded on a six-well plate and cultured until 100% confluent. Subsequently, the cell monolayer was scratched with a pipette tip, to create a physical wound manually. The scratched area was imaged 0, 12, 16, 20 and 24 hours after scratching. The area without cells at the beginning, and the remaining area after 12, 16, 20 and 24 hours, were quantified by Image-J. Thereafter, the percentage of the scratched area into which migrating cells reassembled (the percentage of the wound-closed area) was calculated, with respect to the scratched area.
Further, the wound-healing assay was performed for the human iPS cell-derived fetal epicardium which had been subjected to the transfection assay using each siRNA. […]

The test system of the next series is CDKN1A. Kind of series: siRNA transfection assay, relative CDKN1A mRNA expression by quantitative RT-PCR. Conditions: human iPS cell-derived fetal epicardium; vs negative control siRNA; normalized with GAPDH. As for the experimental part: as §1
RNAs were extracted using QIAzol lysis reagent (manufactured by QIAGEN N.V.), and cDNA was synthesized from the total RNA using ReverTra Ace qPCR RT Master Mix with gDNA Remover (manufactured by TOYOBO Co., Ltd.). Subsequently, quantitative RT-PCR was performed using Thunderbird SYBR qPCR Mix (manufactured by TOYOBO Co., Ltd.)), in One Step Real-Time PCR System (Applied Biosystems). The gene expression results were quantified by the AACt method, and normalized with GAPDH.
The primers used are as follows. […]
The human iPS cell-derived fetal epicardium was subjected to siRNA transfection assay, using a siRNA (siCDKN1A) targeting CDKN1A or a negative control siRNA (control), and the relative mRNA expression levels of CDKN1A were measured by quantitative RT-PCR.

Bounds are passed on as bounds.

On to “siCDKN1A: siRNA targeting CDKN1A; sense strand CAAGGAGUCAGACAUUUUAtt (SEQ ID NO: 1), anti-sense strand UAAAAUGUCUGACUCCUUGtt (SEQ ID NO: 2) (sense CAAGGAGUCAGACAUUUUATT; antisense UAAAAUGUCUGACUCCUUGTT; chemistry not given here)”, for which the “cell quiescence gene signature” value in series [1] is “more released from quiescence”. Also, the “proliferative capacity of the human epicardial cells” value in series [2] was “significant increase”. Besides, the “viability of the human epicardial cells (colony formation)” value in the series on human epicardial cells is given as “significant increase”. Besides, the “wound healing capacity (percentage of the wound-closed area)” value in series [3] is “significant increase”. Also, the “expression level of CDKN1A at the mRNA level as compared to that in the control” value in the series with CDKN1A was no more than 50%.

The record behind these values is US20250290076A1, “EPICARDIAL CELL REGENERATION PROMOTER AND METHOD FOR PROMOTING EPICARDIAL CELL REGENERATION” (KYOTO UNIVERSITY, priority 2022, published 2025).
